Test results: ChEMBL document CHEMBL1131597, “Discovery and development of the novel potent orally active thrombin inhibitor N-(9-hydroxy-9-fluorenecarboxy)prolyl trans-4-aminocyclohexylmethyl amide (L-372,460): coapplication of structure-based design and rapid multiple analogue synthesis on solid support” (J Med Chem, 1998)

How the values were obtained:
[1] = target: T1, Prothrombin (Homo sapiens, UniProt P00734); assay: Inhibition of thrombin-catalyzed hydrolysis of a standard substrate
[2] = target: T1, Prothrombin; assay: Binding affinity towards thrombin was determined
[3] = target: Serine protease 1 (Homo sapiens, UniProt P07477); assay: Binding affinity towards trypsin was determined
Sequence of Serine protease 1 (P07477 whole entry): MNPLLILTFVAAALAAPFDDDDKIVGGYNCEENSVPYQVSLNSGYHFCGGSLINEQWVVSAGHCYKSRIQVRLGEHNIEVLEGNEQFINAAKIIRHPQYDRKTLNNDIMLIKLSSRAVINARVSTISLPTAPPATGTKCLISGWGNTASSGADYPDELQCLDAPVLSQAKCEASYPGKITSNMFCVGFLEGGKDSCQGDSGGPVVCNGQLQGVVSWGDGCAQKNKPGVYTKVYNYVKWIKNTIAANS

SMILES | IC50 [1] | Ki [2] | Ki [3]
CN[C@H](Cc1ccccc1)C(=O)N1CCC[C@H]1C(=O)NC[C@H]1CC[C@H](N)CC1 | 6 nM | 4.9 nM | –
NC1CCC(CNC(=O)[C@@H]2CCCN2C(=O)CC2c3ccccc3-c3ccccc32)CC1 (some centres not stated) | 106 nM | – | –
NC1CCC(CNC(=O)[C@@H]2CCCN2C(=O)C23CC4CC(CC(C4)C2)C3)CC1 (some centres not stated) | 120 nM | – | –
COc1cc(C(O)C(=O)N2CCC[C@H]2C(=O)NCC2CCC(N)CC2)ccc1O (some centres not stated) | 11 nM | 2.5 nM | –
COc1cc(CC(=O)N2CCC[C@H]2C(=O)NCC2CCC(N)CC2)cc(OC)c1OC (some centres not stated) | 50 nM | – | –
CCCCC(CC(=O)N1CCC[C@H]1C(=O)NCC1CCC(N)CC1)c1ccccc1 (some centres not stated) | 5 nM | – | –
N#C/C(=C\c1ccccc1)C(=O)N1CCC[C@H]1C(=O)NCC1CCC(N)CC1 (some centres not stated) | 140 nM | – | –
NC1CCC(CNC(=O)[C@@H]2CCCN2C(=O)C2CC(=O)N3CCc4ccccc4C23)CC1 (some centres not stated) | 90 nM | – | –
NC1CCC(CNC(=O)[C@@H]2CCCN2C(=O)C2c3ccccc3-c3ccccc32)CC1 (some centres not stated) | 380 nM | – | –
CN1C(=O)C[C@@H](c2cccnc2)[C@@H]1C(=O)N1CCC[C@H]1C(=O)NCC1CCC(N)CC1 (some centres not stated) | 60 nM | – | –
NC1CCC(CNC(=O)[C@@H]2CCCN2C(=O)C2CCc3ccccc3C2)CC1 (some centres not stated) | 910 nM | – | –
NC1CCC(CNC(=O)[C@@H]2CCCN2C(=O)C(Cc2ccccc2)c2ccccc2)CC1 (some centres not stated) | 57 nM | – | –
N[C@H]1CC[C@H](CNC(=O)[C@@H]2CCCN2C(=O)C2(O)c3ccccc3-c3ccccc32)CC1 | 4 nM | – | 860 nM
NC1CCC(CNC(=O)[C@@H]2CCCN2C(=O)C2COc3ccccc3O2)CC1 (some centres not stated) | 100 nM | 75 nM | –
NC1CCC(CNC(=O)[C@@H]2CCCN2C(=O)C2CC2(c2ccccc2)c2ccccc2)CC1 (some centres not stated) | 190 nM | – | –
NC1CCC(CNC(=O)[C@@H]2CCCN2C(=O)C(Cc2ccc(O)cc2)c2ccccc2)CC1 (some centres not stated) | 10 nM | 2.5 nM | –
COc1ccccc1CCC(=O)N1CCC[C@H]1C(=O)NCC1CCC(N)CC1 (some centres not stated) | 230 nM | – | –
